{"source": "PubChem BioAssay AID1963825", "about": "(Molecular Pharmacology Branch, DTP, NCI, 2024);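 note: luminescence signal used as a surrogate for viable cells; spheroids exposed to drugs for seven days before readout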", "assay": "Anticancer human tumor 997537-175-T-J1-PDC patient-derived colon adenocarcinoma cell line growth inhibition [POLQ]", "details": "997537-175-T-J1-PDC complex spheroid viability, combination with POLQ inhibitors; for IC50: curve of first compound; for viability, T/C: stronger effect = lower value", "outline": "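Patient-derived tumour cells were co-cultured with HUVEC and mesenchymal stem cells as multicellular spheroids at 37 °C. They were treated with POLQ inhibitors (novobiocin, ART-558, RP6685) alone or combined with other agents. Top concentrations were at or near clinical Cmax (otherwise 10 microM; SN-38 at 1 microM), decreasing in half-log steps.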", "key": {"[1]": {"details": "second compound 0.0316 µM, first compound 0.0316 µM"}, "[2]": {"details": "second compound 0.0316 µM, first compound 0.1 µM"}, "[3]": {"details": "second compound 0.0316 µM, first compound 0.316 µM"}, "[4]": {"details": "second compound 0.0316 µM, first compound 1 µM"}, "[5]": {"details": "second compound 0.1 µM, first compound 0.0316 µM"}, "[6]": {"details": "second compound 0.1 µM, first compound 0.1 µM"}, "[7]": {"details": "second compound 0.1 µM, first compound 0.316 µM"}, "[8]": {"details": "second compound 0.1 µM, first compound 1 µM"}, "[9]": {"details": "second compound 0.316 µM, first compound 0.0316 µM"}, "[10]": {"details": "second compound 0.316 µM, first compound 0.1 µM"}, "[11]": {"details": "second compound 0.316 µM, first compound 0.316 µM"}, "[12]": {"details": "second compound 0.316 µM, first compound 1 µM"}, "[13]": {"details": "second compound 1 µM, first compound 0.0316 µM"}, "[14]": {"details": "second compound 1 µM, first compound 0.1 µM"}, "[15]": {"details": "second compound 1 µM, first compound 0.316 µM"}, "[16]": {"details": "second compound 1 µM, first compound 1 µM"}, "[17]": {"details": "second compound 3.16 µM, first compound 0.0316 µM"}, "[18]": {"details": "second compound 3.16 µM, first compound 0.1 µM"}, "[19]": {"details": "second compound 3.16 µM, first compound 0.316 µM"}, "[20]": {"details": "second compound 3.16 µM, first compound 1 µM"}, "[21]": {"details": "second compound 10 µM, first compound 0.0316 µM"}, "[22]": {"details": "second compound 10 µM, first compound 0.1 µM"}, "[23]": {"details": "second compound 10 µM, first compound 0.316 µM"}, "[24]": {"details": "second compound 10 µM, first compound 1 µM"}}}
{"smiles": "CCc1c2c(nc3ccc(O)cc13)-c1cc3c(c(=O)n1C2)COC(=O)[C@]3(O)CC", "note": "+ Cc1cccc(N(C)C(=O)C2C(O)CCN2c2nc(C)cc(C(F)(F)F)c2C#N)c1", "values": [{"measurement": "IC50", "setting": "second compound 0.0316 µM", "value": 19.7, "unit": "nM"}, {"measurement": "IC50", "setting": "second compound 0.1 µM", "value": 18.1, "unit": "nM"}, {"measurement": "IC50", "setting": "second compound 0.316 µM", "value": 21.7, "unit": "nM"}, {"measurement": "IC50", "setting": "second compound 1 µM", "value": 15.3, "unit": "nM"}, {"measurement": "IC50", "setting": "second compound 3.16 µM", "value": 17.3, "unit": "nM"}, {"measurement": "IC50", "setting": "second compound 10 µM", "value": 18.9, "unit": "nM"}, {"measurement": "viability, T/C", "setting": "second compound 0.0316 µM, first compound 0.00316 µM", "value": 81.5, "unit": "%"}, {"measurement": "viability, T/C", "setting": "second compound 0.0316 µM, first compound 0.01 µM", "value": 68.8, "unit": "%"}, {"measurement": "viability, T/C", "setting": "[1]", "value": 36.7, "unit": "%"}, {"measurement": "viability, T/C", "setting": "[2]", "value": 13.7, "unit": "%"}, {"measurement": "viability, T/C", "setting": "[3]", "value": 5.85, "unit": "%"}, {"measurement": "viability, T/C", "setting": "[4]", "value": 4.36, "unit": "%"}, {"measurement": "viability, T/C", "setting": "second compound 0.1 µM, first compound 0.00316 µM", "value": 86.2, "unit": "%"}, {"measurement": "viability, T/C", "setting": "second compound 0.1 µM, first compound 0.01 µM", "value": 70.1, "unit": "%"}, {"measurement": "viability, T/C", "setting": "[5]", "value": 30.7, "unit": "%"}, {"measurement": "viability, T/C", "setting": "[6]", "value": 11.7, "unit": "%"}, {"measurement": "viability, T/C", "setting": "[7]", "value": 6.03, "unit": "%"}, {"measurement": "viability, T/C", "setting": "[8]", "value": 4.13, "unit": "%"}, {"measurement": "viability, T/C", "setting": "second compound 0.316 µM, first compound 0.00316 µM", "value": 82.7, "unit": "%"}, {"measurement": "viability, T/C", "setting": "second compound 0.316 µM, first compound 0.01 µM", "value": 77.2, "unit": "%"}, {"measurement": "viability, T/C", "setting": "[9]", "value": 35.8, "unit": "%"}, {"measurement": "viability, T/C", "setting": "[10]", "value": 15.8, "unit": "%"}, {"measurement": "viability, T/C", "setting": "[11]", "value": 5.26, "unit": "%"}, {"measurement": "viability, T/C", "setting": "[12]", "value": 5.26, "unit": "%"}, {"measurement": "viability, T/C", "setting": "second compound 1 µM, first compound 0.00316 µM", "value": 79.8, "unit": "%"}, {"measurement": "viability, T/C", "setting": "second compound 1 µM, first compound 0.01 µM", "value": 59.5, "unit": "%"}, {"measurement": "viability, T/C", "setting": "[13]", "value": 33.5, "unit": "%"}, {"measurement": "viability, T/C", "setting": "[14]", "value": 14.4, "unit": "%"}, {"measurement": "viability, T/C", "setting": "[15]", "value": 5.49, "unit": "%"}, {"measurement": "viability, T/C", "setting": "[16]", "value": 5.83, "unit": "%"}, {"measurement": "viability, T/C", "setting": "second compound 3.16 µM, first compound 0.00316 µM", "value": 91.5, "unit": "%"}, {"measurement": "viability, T/C", "setting": "second compound 3.16 µM, first compound 0.01 µM", "value": 65.3, "unit": "%"}, {"measurement": "viability, T/C", "setting": "[17]", "value": 33, "unit": "%"}, {"measurement": "viability, T/C", "setting": "[18]", "value": 14.8, "unit": "%"}, {"measurement": "viability, T/C", "setting": "[19]", "value": 6.21, "unit": "%"}, {"measurement": "viability, T/C", "setting": "[20]", "value": 5.14, "unit": "%"}, {"measurement": "viability, T/C", "setting": "second compound 10 µM, first compound 0.00316 µM", "value": 81.4, "unit": "%"}, {"measurement": "viability, T/C", "setting": "second compound 10 µM, first compound 0.01 µM", "value": 63, "unit": "%"}, {"measurement": "viability, T/C", "setting": "[21]", "value": 39.5, "unit": "%"}, {"measurement": "viability, T/C", "setting": "[22]", "value": 18.7, "unit": "%"}, {"measurement": "viability, T/C", "setting": "[23]", "value": 5.71, "unit": "%"}, {"measurement": "viability, T/C", "setting": "[24]", "value": 7.45, "unit": "%"}]}
{"smiles": "Nc1ccn(C2OC(CO)C(O)C2(F)F)c(=O)n1", "note": "(centres undefined) + Cc1cccc(N(C)C(=O)C2C(O)CCN2c2nc(C)cc(C(F)(F)F)c2C#N)c1", "values": [{"measurement": "IC50", "setting": "second compound 0.0316 µM", "value": "> 10000", "unit": "nM"}, {"measurement": "IC50", "setting": "second compound 0.1 µM", "value": "> 10000", "unit": "nM"}, {"measurement": "IC50", "setting": "second compound 0.316 µM", "value": "> 10000", "unit": "nM"}, {"measurement": "IC50", "setting": "second compound 1 µM", "value": "> 10000", "unit": "nM"}, {"measurement": "IC50", "setting": "second compound 3.16 µM", "value": "> 10000", "unit": "nM"}, {"measurement": "IC50", "setting": "second compound 10 µM", "value": "> 10000", "unit": "nM"}, {"measurement": "viability, T/C", "setting": "[1]", "value": 96.2, "unit": "%"}, {"measurement": "viability, T/C", "setting": "[2]", "value": 99.7, "unit": "%"}, {"measurement": "viability, T/C", "setting": "[3]", "value": 91.8, "unit": "%"}, {"measurement": "viability, T/C", "setting": "[4]", "value": 89.8, "unit": "%"}, {"measurement": "viability, T/C", "setting": "second compound 0.0316 µM, first compound 3.16 µM", "value": 57.8, "unit": "%"}, {"measurement": "viability, T/C", "setting": "second compound 0.0316 µM, first compound 10 µM", "value": 77, "unit": "%"}, {"measurement": "viability, T/C", "setting": "[5]", "value": 106, "unit": "%"}, {"measurement": "viability, T/C", "setting": "[6]", "value": 91.5, "unit": "%"}, {"measurement": "viability, T/C", "setting": "[7]", "value": 85.1, "unit": "%"}, {"measurement": "viability, T/C", "setting": "[8]", "value": 67.1, "unit": "%"}, {"measurement": "viability, T/C", "setting": "second compound 0.1 µM, first compound 3.16 µM", "value": 90.5, "unit": "%"}, {"measurement": "viability, T/C", "setting": "second compound 0.1 µM, first compound 10 µM", "value": 52.8, "unit": "%"}, {"measurement": "viability, T/C", "setting": "[9]", "value": 91.4, "unit": "%"}, {"measurement": "viability, T/C", "setting": "[10]", "value": 102, "unit": "%"}, {"measurement": "viability, T/C", "setting": "[11]", "value": 79.3, "unit": "%"}, {"measurement": "viability, T/C", "setting": "[12]", "value": 76.7, "unit": "%"}, {"measurement": "viability, T/C", "setting": "second compound 0.316 µM, first compound 3.16 µM", "value": 80.4, "unit": "%"}, {"measurement": "viability, T/C", "setting": "second compound 0.316 µM, first compound 10 µM", "value": 63.5, "unit": "%"}, {"measurement": "viability, T/C", "setting": "[13]", "value": 91.8, "unit": "%"}, {"measurement": "viability, T/C", "setting": "[14]", "value": 102, "unit": "%"}, {"measurement": "viability, T/C", "setting": "[15]", "value": 73.7, "unit": "%"}, {"measurement": "viability, T/C", "setting": "[16]", "value": 68.4, "unit": "%"}, {"measurement": "viability, T/C", "setting": "second compound 1 µM, first compound 3.16 µM", "value": 66, "unit": "%"}, {"measurement": "viability, T/C", "setting": "second compound 1 µM, first compound 10 µM", "value": 66.7, "unit": "%"}, {"measurement": "viability, T/C", "setting": "[17]", "value": 95.3, "unit": "%"}, {"measurement": "viability, T/C", "setting": "[18]", "value": 103, "unit": "%"}, {"measurement": "viability, T/C", "setting": "[19]", "value": 90.4, "unit": "%"}, {"measurement": "viability, T/C", "setting": "[20]", "value": 92.5, "unit": "%"}, {"measurement": "viability, T/C", "setting": "second compound 3.16 µM, first compound 3.16 µM", "value": 86.1, "unit": "%"}, {"measurement": "viability, T/C", "setting": "second compound 3.16 µM, first compound 10 µM", "value": 70.7, "unit": "%"}, {"measurement": "viability, T/C", "setting": "[21]", "value": 94.8, "unit": "%"}, {"measurement": "viability, T/C", "setting": "[22]", "value": 97.2, "unit": "%"}, {"measurement": "viability, T/C", "setting": "[23]", "value": 96.6, "unit": "%"}, {"measurement": "viability, T/C", "setting": "[24]", "value": 86.9, "unit": "%"}, {"measurement": "viability, T/C", "setting": "second compound 10 µM, first compound 3.16 µM", "value": 47.2, "unit": "%"}, {"measurement": "viability, T/C", "setting": "second compound 10 µM, first compound 10 µM", "value": 82, "unit": "%"}]}
